Experimental data: patent US7375222B2, “2,4,6-Triamino-1,3,5-triazine derivative” (Astellas Pharma Inc., priority 2002, dated 2008)
Where a name gives a salt, the structure may show the parent alone.

Tests used:
BEC 1 potassium channel = target: T1, BEC 1 potassium channel (Homo sapiens, UniProt Q9ULD8); assay: BEC 1 inhibitory activity using released amount of 86Rb ions from BEC 1-expressing cells; assay type: cell-based; settings: 86Rb ion release; for IC50: BEC 1-stably expressing CHO (dhfr-deficient) cell, 100 mM KCl stimulation, read-out: BEC1 IC50; for Inhibition ratio: concentration of test compound is 3 μM
T1 construct: expressed in transfected cells
T1 sequence (Q9ULD8 1-1083): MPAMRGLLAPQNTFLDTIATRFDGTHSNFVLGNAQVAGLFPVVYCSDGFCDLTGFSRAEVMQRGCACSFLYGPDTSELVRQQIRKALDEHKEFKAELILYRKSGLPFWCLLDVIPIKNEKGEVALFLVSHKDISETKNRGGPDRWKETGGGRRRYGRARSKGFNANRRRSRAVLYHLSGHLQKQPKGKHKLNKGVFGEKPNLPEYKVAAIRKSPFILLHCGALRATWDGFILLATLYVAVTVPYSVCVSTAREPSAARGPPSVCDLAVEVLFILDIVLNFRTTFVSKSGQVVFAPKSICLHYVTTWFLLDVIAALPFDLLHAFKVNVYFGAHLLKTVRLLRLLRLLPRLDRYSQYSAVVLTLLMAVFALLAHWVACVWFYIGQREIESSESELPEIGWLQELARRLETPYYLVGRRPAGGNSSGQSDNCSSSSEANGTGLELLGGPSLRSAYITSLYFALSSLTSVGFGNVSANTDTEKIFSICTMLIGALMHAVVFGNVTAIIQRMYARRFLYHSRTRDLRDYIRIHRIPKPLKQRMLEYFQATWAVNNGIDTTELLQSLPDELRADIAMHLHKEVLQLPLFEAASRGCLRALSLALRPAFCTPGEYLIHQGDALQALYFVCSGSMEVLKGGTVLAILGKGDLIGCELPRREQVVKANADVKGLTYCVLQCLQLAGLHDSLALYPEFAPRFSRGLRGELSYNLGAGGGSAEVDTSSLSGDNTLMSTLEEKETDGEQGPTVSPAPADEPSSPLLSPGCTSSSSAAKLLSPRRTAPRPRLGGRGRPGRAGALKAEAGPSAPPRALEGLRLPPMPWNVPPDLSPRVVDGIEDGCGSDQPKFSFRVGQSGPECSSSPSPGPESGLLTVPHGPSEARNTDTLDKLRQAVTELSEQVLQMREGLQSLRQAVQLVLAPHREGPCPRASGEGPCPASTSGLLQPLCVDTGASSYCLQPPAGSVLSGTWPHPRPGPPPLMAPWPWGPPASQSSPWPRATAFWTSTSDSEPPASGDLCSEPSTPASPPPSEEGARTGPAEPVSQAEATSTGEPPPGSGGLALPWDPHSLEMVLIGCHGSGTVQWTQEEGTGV
Description: In general, the potassium channel can pass Rb^+ ion similar to K^+ ion, so that the channel activity can be measured using release of a radioisotope ^86Rb^+ as a marker. By incubating cells expressing the novel potassium channel protein together with ^86RbCl (e.g., 18 hr, 37° C.), ^86Rb^+ can be incorporated into the cells. The cells are washed with a low K^+ concentration physiological saline (e.g., 4.5 mM K^+) and then suspended in the same solution. When a high K^+ concentration solution (e.g., 100 mM in final concentration) is added to the cell suspension, membrane potential of the cell is depolarized and the potassium channel therefore is activated. As a result, the intracellular ^86Rb^+ is released into the extracellular part, thus radioactivity of the extracellular solution can be used as a marker of the channel activity. It is possible to screen a compound and a peptide capable of modifying activity of the BEC 1 potassium channel protein, by comparing the radioactivity released into the extracellular part when the high K^+ concentration solution is added in the presence and absence of each drug to be tested.
Method for Measuring BEC 1 Inhibitory Activity of Compounds Using Released Amount of ^86Rb ions as the Index
The channel activity of BEC 1 was measured in accordance with the method described in WO 99/37677, using amount of a radioisotope ^86Rb ion released from a BEC 1-expressing cell as the index. That is, when an ^86Rb ion-incorporated BEC 1-expressing cell was stimulated with 100 mM KCl, the radioactivity released from the cell was used as the channel activity of BEC 1. The ^86Rb ions were incorporated into a BEC 1-stably expressing cell by culturing the cell (3 hours, 37° C.) in the presence of ^86RbCl (0.5 μCi/ml), and the un-incorporated ^86Rb ions were removed by washing three times with HEPES-buffered saline (pH 7.4, 2.5 mM KCl). The cells were incubated with HEPES-buffered saline containing a compound to be tested at room temperature for 15 minutes and then further incubated with 100 mM KCl-containing HEPES-buffered saline (pH 7.4) containing the compound to be tested at room temperature for 5 minutes. The extracellular medium was recovered, and then the remaining cells were lysed with 0.1 N NaOH and recovered.
The Cerenkov radioactivity of the extracellular medium and cell lysate was respectively measured, and their total was used as the total radioactivity. The released amount of ^86Rb ions was expressed by the percentage of extracellular medium radioactivity based on the total radioactivity. The value obtained in the presence of the compound was used as a test value, and the value obtained in the absence of the compound as a control value and the value obtained when not stimulated with 100 mM KCl as a blank value. Inhibitory action of each compound was expressed by % inhibition, namely (control value−test value)×100/(control value−blank value), or by an IC50 value calculated from the % inhibition. As the test results of typical compounds are shown in the following Tables 2 and 3, it was confirmed that said compounds have the BEC 1 potassium channel inhibitory action.
In this connection, as the BEC 1-expressing cell, a BEC 1-stably expressing cell prepared in accordance with the method described in WO 99/37677 using a dihydrofolate reductase (dhfr)-deficient strain of a Chinese hamster ovary cell was used.

Row | Compound | IC50 (BEC 1 potassium channel) [µM] | also measured
1 | COc1ccc(Nc2nc(Nc3ccccc3)nc(NC(C)C)n2)cc1 (as salt: HCl) (hydrate or solvate) [Ex 48] |  | melting point: 174 to 177 °C
2 | CONc1nc(Nc2ccccc2)nc(Nc2ccc(F)cc2)n1 (as salt: HCl) (hydrate or solvate) [Example 789] |  | melting point: 140 to 141 °C
3 | CCONc1nc(Nc2ccccc2)nc(Nc2ccc(F)cc2)n1 (as salt: HCl) (hydrate or solvate) [Example 790] |  | melting point: 141 to 143 °C
4 | O=C1OCCC1CNc1nc(Nc2ccccc2)nc(Nc2ccccc2)n1 (centres unmarked) (as salt: HCl) (hydrate or solvate) [compound 24] |  | melting point: 138 to 140 °C
5 | Fc1ccc(Nc2nc(NCc3ccccc3)nc(Nc3ccc(F)cc3)n2)cc1 (as salt: HCl) (hydrate or solvate) [compound 28] |  | melting point: 176 to 178 °C
6 | Fc1ccc(Nc2nc(NCC3CCCO3)nc(Nc3ccc(F)cc3)n2)cc1 (centres unmarked) (as salt: HCl) (hydrate or solvate) [compound 36] |  | melting point: 171 to 174 °C
7 | CC(C)Nc1nc(Nc2ccccc2)nc(Nc2ccc(Cl)cc2)n1 (as salt: HCl) [Ex 46] |  | melting point: 201 to 203 °C
8 | CC(C)Nc1nc(Nc2ccccc2)nc(Nc2ccc(Cl)cc2)n1 [Ex 46] | 0.49 | 
9 | Cc1ccc(Nc2nc(Nc3ccccc3)nc(NC(C)C)n2)cc1 [Ex 47] | 0.72 | 
10 | COc1ccc(Nc2nc(Nc3ccccc3)nc(NC(C)C)n2)cc1 [Ex 48] | 0.29 | 
11 | CC(C)Nc1nc(Nc2ccccc2)nc(Nc2ccc(C(F)(F)F)cc2)n1 [Ex 49] | 0.14 | 
12 | [O-][n+]1ccc(CCNc2nc(Nc3ccccc3)nc(Nc3ccccc3)n2)cc1 [Example 740] | 4.9 | 
13 | c1ccc(Nc2nc(NCC3CCOCC3)nc(Nc3ccccc3)n2)cc1 [Example 741] | 0.52 | 
14 | CC(CCCC(C)(C)O)Nc1nc(Nc2ccccc2)nc(Nc2ccccc2)n1 (centres unmarked) [Example 742] | 1.4 | 
15 | Fc1ccc(Nc2nc(NCc3ccnc(F)c3)nc(Nc3ccc(F)cc3)n2)cc1 [Example 743] | 0.1 | 
16 | Nc1cc(CNc2nc(Nc3ccccc3)nc(Nc3ccc(F)cc3)n2)ccn1 [Example 747] | 3.6 | 
17 | Fc1ccc(Nc2nc(NCc3ccco3)nc(Nc3ccccc3)n2)cc1 [Example 764] | 0.047 | 
18 | COCCNc1nc(Nc2ccccc2)nc(Nc2ccc(F)cc2)n1 [Example 771] | 0.25 | 
19 | OCCNc1nc(Nc2ccccc2)nc(Nc2ccc(F)cc2)n1 [Example 773] | 1.5 | 
20 | OCCCNc1nc(Nc2ccccc2)nc(Nc2ccc(F)cc2)n1 [Example 774] | 0.55 | 
21 | OCCCCNc1nc(Nc2ccccc2)nc(Nc2ccc(F)cc2)n1 [Example 775] | 0.11 | 
22 | OCCCCCNc1nc(Nc2ccccc2)nc(Nc2ccc(F)cc2)n1 [Example 776] | 0.14 | 
23 | OCCOCCNc1nc(Nc2ccccc2)nc(Nc2ccc(F)cc2)n1 [Example 777] | 0.21 | 
24 | C[C@H](CO)Nc1nc(Nc2ccccc2)nc(Nc2ccc(F)cc2)n1 [Example 779] | 0.7 | 
25 | CONc1nc(Nc2ccccc2)nc(Nc2ccc(F)cc2)n1 [Example 789] | 9.5 | 
26 | CCONc1nc(Nc2ccccc2)nc(Nc2ccc(F)cc2)n1 [Example 790] | 4.7 | 
27 | CN(C)Nc1nc(Nc2ccccc2)nc(Nc2ccc(F)cc2)n1 [Example 791] | 2.2 | 

Row | Compound | IC50 (BEC 1 potassium channel) [µM] | also measured
28 | CCN(CC)CCCC(C)Nc1nc(Nc2ccccc2)nc(Nc2ccc(F)cc2)n1 (centres unmarked) [Example 794] | 3.1 | 
29 | Fc1ccc(Nc2nc(NCc3ccnc(F)c3)nc(Nc3ccc(Cl)cc3)n2)cc1 [Example 797] | 0.65 | 
30 | COCCNc1nc(Nc2ccccc2)nc(Nc2ccc(OC)cc2)n1 [Example 808] | 0.42 | 
31 | Nc1cccc(CNc2nc(Nc3ccccc3)nc(Nc3ccc(F)cc3)n2)n1 [Example 819] | 1.4 | 
32 | c1ccc(Nc2nc(NCc3ccncc3)nc(Nc3ccccc3)n2)cc1 [compound 1, N,N′-diphenyl-N″-(4-pyridylmethyl)-1,3,5-triazine-2,4,6-triamine] | 0.084 | 
33 | C#CCNc1nc(Nc2ccccc2)nc(Nc2ccccc2)n1 [compound 16] | 0.36 | 
34 | COCCCNc1nc(Nc2ccccc2)nc(Nc2ccccc2)n1 [compound 18] | 1.1 | 
35 | CSCCCNc1nc(Nc2ccccc2)nc(Nc2ccccc2)n1 [compound 19] | 1.3 | 
36 | OCCCNc1nc(Nc2ccccc2)nc(Nc2ccccc2)n1 [compound 21] | 0.59 | 
37 | OCCOCCNc1nc(Nc2ccccc2)nc(Nc2ccccc2)n1 [compound 23] | 0.24 | 
38 | O=C1OCCC1CNc1nc(Nc2ccccc2)nc(Nc2ccccc2)n1 (centres unmarked) [compound 24] | 0.48 | 
39 | Fc1ccc(Nc2nc(NCc3ccccc3)nc(Nc3ccc(F)cc3)n2)cc1 [compound 28] | 0.39 | 
40 | Fc1ccc(CNc2nc(Nc3ccc(F)cc3)nc(Nc3ccc(F)cc3)n2)cc1 [compound 29] | 0.35 | 
41 | Fc1ccc(Nc2nc(NCc3ccco3)nc(Nc3ccc(F)cc3)n2)cc1 [compound 30] | 0.073 | 
42 | Fc1ccc(Nc2nc(NCc3cccs3)nc(Nc3ccc(F)cc3)n2)cc1 [compound 31] | 0.49 | 
43 | COCCNc1nc(Nc2ccc(F)cc2)nc(Nc2ccc(F)cc2)n1 [compound 35] | 0.24 | 
44 | Fc1ccc(Nc2nc(NCC3CCCO3)nc(Nc3ccc(F)cc3)n2)cc1 (centres unmarked) [compound 36] | 0.48 | 
45 | OCCCCCNc1nc(Nc2ccc(F)cc2)nc(Nc2ccc(F)cc2)n1 [compound 37] | 0.26 | 
46 | OCCOCCNc1nc(Nc2ccc(F)cc2)nc(Nc2ccc(F)cc2)n1 [compound 38] | 0.18 | 
47 | COc1cccc(Nc2nc(Nc3cccc(OC)c3)nc(NC(C)C)n2)c1 [compound 40] | 0.63 | 
48 | CC(C)Nc1nc(Nc2ccc3c(c2)OCO3)nc(Nc2ccc3c(c2)OCO3)n1 [compound 41] | 0.4 | 
49 | CNc1nc(Nc2ccccc2)nc(Nc2ccccc2)n1 [compound 52] |  | Inhibition ratio (BEC 1 potassium channel): 31%
50 | CCNc1nc(Nc2ccccc2)nc(Nc2ccccc2)n1 [compound 53] |  | Inhibition ratio (BEC 1 potassium channel): 59%
51 | CCCNc1nc(Nc2ccccc2)nc(Nc2ccccc2)n1 [compound 54] |  | Inhibition ratio (BEC 1 potassium channel): 64%
52 | c1ccc(Nc2nc(Nc3ccccc3)nc(NC3CC3)n2)cc1 [compound 62] |  | Inhibition ratio (BEC 1 potassium channel): 44%
53 | N-isopropyl-N′,N″-bis(4-methoxyphenyl)-1,3,5-triazine-1,3,5-triamine hydrochloride [compound 39] | 0.66 | 
